Here are results for seven compounds from ChEMBL document CHEMBL5465560, “Selectivity Literature for EUbOPEN Chemogenomic Library” (2024).

In experiment [1] the target is T1, Serine/threonine-protein kinase Nek3 (Homo sapiens) (UniProt P51956).
T1 sequence (whole entry): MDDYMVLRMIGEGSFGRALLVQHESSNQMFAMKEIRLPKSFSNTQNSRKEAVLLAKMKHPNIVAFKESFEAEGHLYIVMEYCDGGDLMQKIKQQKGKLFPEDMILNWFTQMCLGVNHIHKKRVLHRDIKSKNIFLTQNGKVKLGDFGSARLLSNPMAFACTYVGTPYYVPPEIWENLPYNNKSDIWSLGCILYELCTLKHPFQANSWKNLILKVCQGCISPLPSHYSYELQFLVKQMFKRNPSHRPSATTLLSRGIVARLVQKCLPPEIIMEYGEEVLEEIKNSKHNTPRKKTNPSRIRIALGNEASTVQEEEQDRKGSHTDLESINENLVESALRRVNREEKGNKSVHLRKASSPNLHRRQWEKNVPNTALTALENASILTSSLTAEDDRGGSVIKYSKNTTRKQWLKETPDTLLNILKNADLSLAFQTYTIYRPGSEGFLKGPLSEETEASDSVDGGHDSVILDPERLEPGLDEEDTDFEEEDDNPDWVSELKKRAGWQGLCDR
The experiment in a line: Selectivity interaction (KinomeScan (DiscoverX)) EUB0000666a NEK3. The following applies: at 10 µM.

The target of experiment [2] is Tyrosine-protein kinase ABL2 (Homo sapiens, UniProt P42684). The experiment in a line: Selectivity interaction (SelectScreen profiling (Invitrogen)) EUB0000607a ABL2. The conditions noted are these: at 2 µM.
Experiment [3] concerns the target Receptor-interacting serine/threonine-protein kinase 2 (Homo sapiens, UniProt O43353). The experiment in a line: Selectivity interaction (KinomeScan (DiscoverX)) EUB0000607a RIPK2. The conditions noted are these: at 10 µM.
Experiment [4] concerns the target Cyclin-dependent kinase 20 (Homo sapiens) (UniProt Q8IZL9). The experiment in a line: Selectivity interaction (ActivX KiNativ screen (kinase selectivity in THP-1 cell lysates)) EUB0000639a CDK20. The format is subcellular. The conditions noted are these: lysate.
The target in experiment [5] is Ribosomal protein S6 kinase alpha-1 (Homo sapiens, UniProt Q15418). The experiment in a line: Selectivity interaction (ActivX KiNativ screen (kinase selectivity in THP-1 cell lysates)) EUB0000639a RPS6KA1. In kind it is subcellular. The following applies: lysate, at 0.04 µM.
The target of experiment [6] is Activin receptor type-2A (Homo sapiens) (UniProt P27037). Description: Selectivity interaction (Ambit KINOMEscan and KiNATiv profiling in Jurkat cells) EUB0000090b ACVR2A. The format is cell-based. The following applies: at 1 µM.
In experiment [7] the target is T2, Serine/threonine-protein kinase PLK4 (Homo sapiens) (UniProt O00444).
T2 sequence (whole entry): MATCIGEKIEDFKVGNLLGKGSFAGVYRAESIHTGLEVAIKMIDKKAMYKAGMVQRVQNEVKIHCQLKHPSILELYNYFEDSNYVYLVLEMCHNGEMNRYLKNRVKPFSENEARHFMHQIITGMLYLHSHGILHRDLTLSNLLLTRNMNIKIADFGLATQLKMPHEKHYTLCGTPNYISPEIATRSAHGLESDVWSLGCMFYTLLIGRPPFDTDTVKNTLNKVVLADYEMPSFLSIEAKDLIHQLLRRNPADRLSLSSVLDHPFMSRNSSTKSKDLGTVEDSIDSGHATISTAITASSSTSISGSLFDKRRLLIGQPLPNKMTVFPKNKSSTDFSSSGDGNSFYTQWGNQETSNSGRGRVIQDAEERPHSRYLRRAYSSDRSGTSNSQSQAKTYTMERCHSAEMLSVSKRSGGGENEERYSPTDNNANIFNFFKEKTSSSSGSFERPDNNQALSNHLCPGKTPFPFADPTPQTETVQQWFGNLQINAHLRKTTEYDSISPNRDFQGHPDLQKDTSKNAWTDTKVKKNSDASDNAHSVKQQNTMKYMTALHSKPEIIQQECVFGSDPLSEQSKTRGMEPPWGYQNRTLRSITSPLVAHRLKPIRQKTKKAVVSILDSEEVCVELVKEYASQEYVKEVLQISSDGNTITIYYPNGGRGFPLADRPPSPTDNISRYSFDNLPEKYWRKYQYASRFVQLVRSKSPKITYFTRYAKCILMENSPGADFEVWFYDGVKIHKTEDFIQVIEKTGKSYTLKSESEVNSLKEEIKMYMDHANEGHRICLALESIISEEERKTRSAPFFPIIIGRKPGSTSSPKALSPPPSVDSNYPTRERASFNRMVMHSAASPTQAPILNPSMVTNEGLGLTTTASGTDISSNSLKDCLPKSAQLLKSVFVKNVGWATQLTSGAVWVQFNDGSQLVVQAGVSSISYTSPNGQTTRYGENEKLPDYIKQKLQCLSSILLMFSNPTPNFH
The experiment in a line: Selectivity interaction (Ambit KINOMEscan and KiNATiv profiling in Jurkat cells) EUB0000090b PLK4. The format is cell-based. The following applies: at 1 µM.

Experiment [8] addresses Proto-oncogene tyrosine-protein kinase Src (Homo sapiens, UniProt P12931). Description: Selectivity interaction (Ambit KINOMEscan and KiNATiv profiling in Jurkat cells) EUB0000090b SRC. The following applies: at 1 µM. In kind it is cell-based.
Experiment [9] deals with BMP-2-inducible protein kinase (Homo sapiens) (UniProt Q9NSY1). The experiment in a line: Selectivity interaction (KinomeScan (DiscoverX)) EUB0000618a BMP2K. The conditions noted are these: at 10 µM.
Experiment [10] concerns the target cAMP-dependent protein kinase catalytic subunit alpha (Homo sapiens, UniProt P17612). Description: Selectivity interaction (KinomeScan (DiscoverX)) EUB0000618a PRKACA. The conditions noted are these: at 10 µM.
Experiment [11] concerns the target Serine/threonine-protein kinase 32A (Homo sapiens) (UniProt Q8WU08). The experiment in a line: Selectivity interaction (KinomeScan (DiscoverX)) EUB0000092b STK32A. The following applies: at 10 µM.
Experiment [12] deals with Glucocorticoid receptor (Homo sapiens) (UniProt P04150). Description: Selectivity interaction (Panel of non-epigenetic targets (kinases, GPCRs, ion channels, and transporters, Eurofins) ) EUB0000271b NR3C1. The following applies: at 1 µM.
Glucocorticoid receptor (Homo sapiens), sequence (P04150 whole entry): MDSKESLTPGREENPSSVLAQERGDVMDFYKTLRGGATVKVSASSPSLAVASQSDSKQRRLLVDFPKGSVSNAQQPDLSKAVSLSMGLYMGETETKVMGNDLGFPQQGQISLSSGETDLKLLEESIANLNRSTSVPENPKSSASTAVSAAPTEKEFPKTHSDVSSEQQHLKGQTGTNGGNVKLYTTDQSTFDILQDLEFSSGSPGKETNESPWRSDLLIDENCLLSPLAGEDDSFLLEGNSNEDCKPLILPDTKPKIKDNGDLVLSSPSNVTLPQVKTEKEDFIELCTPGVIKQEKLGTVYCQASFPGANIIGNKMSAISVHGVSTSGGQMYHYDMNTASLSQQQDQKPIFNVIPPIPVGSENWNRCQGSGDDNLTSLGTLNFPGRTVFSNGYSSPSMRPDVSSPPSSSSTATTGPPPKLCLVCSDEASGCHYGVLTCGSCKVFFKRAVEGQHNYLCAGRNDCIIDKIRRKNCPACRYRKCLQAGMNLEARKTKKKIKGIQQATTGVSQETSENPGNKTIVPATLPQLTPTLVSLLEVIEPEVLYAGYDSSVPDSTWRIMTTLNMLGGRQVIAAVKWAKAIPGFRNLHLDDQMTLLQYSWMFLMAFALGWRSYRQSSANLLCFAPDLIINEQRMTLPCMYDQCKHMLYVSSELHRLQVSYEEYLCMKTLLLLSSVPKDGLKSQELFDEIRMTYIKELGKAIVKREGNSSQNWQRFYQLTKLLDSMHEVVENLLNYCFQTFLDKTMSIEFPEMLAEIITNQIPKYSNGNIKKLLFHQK

Cyclin-dependent kinase 20 (Homo sapiens), sequence (Q8IZL9 whole entry): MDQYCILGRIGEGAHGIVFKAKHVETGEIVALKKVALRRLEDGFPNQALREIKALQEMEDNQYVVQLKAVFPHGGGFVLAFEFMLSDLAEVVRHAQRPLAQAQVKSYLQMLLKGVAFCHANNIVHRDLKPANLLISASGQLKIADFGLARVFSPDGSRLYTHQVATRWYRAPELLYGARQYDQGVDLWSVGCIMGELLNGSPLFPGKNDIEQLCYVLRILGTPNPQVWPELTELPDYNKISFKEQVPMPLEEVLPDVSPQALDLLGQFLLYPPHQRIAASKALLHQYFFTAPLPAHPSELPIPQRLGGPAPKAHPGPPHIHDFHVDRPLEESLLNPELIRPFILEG
Receptor-interacting serine/threonine-protein kinase 2, sequence (O43353 whole entry): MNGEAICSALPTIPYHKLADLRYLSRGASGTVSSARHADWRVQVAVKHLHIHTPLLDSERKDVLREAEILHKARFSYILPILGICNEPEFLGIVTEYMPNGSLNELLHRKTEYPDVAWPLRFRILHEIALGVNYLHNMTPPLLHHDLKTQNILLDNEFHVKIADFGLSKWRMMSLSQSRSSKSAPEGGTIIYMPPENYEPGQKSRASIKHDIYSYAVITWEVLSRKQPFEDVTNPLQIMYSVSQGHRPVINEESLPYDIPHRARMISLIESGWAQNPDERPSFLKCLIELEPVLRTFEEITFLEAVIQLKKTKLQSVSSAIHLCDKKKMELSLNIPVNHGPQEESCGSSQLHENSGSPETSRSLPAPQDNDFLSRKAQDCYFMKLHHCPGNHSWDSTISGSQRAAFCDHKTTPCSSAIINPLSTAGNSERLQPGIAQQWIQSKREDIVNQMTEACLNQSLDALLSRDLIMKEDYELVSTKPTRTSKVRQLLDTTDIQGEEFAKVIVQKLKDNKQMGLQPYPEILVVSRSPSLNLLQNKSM
Serine/threonine-protein kinase 32A (Homo sapiens), sequence (Q8WU08 whole entry): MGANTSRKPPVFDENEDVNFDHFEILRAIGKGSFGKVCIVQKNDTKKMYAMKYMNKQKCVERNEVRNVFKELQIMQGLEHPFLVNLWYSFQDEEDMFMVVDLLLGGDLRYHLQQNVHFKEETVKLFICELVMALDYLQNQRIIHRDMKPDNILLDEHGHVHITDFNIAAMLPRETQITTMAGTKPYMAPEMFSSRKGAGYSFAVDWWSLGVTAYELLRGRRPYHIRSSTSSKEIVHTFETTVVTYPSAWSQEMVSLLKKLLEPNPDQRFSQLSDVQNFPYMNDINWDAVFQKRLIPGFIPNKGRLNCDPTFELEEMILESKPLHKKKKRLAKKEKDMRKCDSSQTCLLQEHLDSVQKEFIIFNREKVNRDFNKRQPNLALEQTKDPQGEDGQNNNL
Tyrosine-protein kinase ABL2, sequence (P42684 whole entry): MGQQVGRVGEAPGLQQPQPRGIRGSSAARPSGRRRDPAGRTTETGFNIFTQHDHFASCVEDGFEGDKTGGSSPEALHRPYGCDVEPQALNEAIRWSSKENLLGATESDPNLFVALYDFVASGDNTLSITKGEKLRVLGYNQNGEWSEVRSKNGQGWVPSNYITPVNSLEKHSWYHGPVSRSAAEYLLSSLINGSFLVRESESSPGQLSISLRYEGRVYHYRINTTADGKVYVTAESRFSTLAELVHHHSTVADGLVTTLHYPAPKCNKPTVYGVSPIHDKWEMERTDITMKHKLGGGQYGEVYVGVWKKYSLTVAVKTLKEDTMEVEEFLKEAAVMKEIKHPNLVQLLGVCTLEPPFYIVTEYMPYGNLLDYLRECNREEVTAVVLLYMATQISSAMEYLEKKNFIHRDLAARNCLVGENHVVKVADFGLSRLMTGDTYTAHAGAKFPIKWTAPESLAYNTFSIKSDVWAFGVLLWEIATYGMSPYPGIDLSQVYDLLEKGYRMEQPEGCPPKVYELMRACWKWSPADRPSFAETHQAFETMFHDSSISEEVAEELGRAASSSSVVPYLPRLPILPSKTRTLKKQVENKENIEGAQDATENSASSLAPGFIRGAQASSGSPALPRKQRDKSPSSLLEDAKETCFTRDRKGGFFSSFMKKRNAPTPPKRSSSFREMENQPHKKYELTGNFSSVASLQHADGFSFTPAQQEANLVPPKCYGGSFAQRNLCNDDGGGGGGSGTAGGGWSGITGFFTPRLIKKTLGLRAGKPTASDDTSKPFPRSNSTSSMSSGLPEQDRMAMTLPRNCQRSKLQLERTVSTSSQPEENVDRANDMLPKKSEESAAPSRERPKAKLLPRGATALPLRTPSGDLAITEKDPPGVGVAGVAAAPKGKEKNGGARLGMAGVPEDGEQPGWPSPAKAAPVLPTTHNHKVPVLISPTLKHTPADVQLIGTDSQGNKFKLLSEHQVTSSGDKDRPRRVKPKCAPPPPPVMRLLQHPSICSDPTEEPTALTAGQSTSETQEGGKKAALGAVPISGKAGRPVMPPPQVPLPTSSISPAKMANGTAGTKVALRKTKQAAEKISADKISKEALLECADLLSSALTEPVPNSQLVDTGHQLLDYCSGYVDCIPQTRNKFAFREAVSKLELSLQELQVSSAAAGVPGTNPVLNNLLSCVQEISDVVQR
Ribosomal protein S6 kinase alpha-1, sequence (Q15418 whole entry): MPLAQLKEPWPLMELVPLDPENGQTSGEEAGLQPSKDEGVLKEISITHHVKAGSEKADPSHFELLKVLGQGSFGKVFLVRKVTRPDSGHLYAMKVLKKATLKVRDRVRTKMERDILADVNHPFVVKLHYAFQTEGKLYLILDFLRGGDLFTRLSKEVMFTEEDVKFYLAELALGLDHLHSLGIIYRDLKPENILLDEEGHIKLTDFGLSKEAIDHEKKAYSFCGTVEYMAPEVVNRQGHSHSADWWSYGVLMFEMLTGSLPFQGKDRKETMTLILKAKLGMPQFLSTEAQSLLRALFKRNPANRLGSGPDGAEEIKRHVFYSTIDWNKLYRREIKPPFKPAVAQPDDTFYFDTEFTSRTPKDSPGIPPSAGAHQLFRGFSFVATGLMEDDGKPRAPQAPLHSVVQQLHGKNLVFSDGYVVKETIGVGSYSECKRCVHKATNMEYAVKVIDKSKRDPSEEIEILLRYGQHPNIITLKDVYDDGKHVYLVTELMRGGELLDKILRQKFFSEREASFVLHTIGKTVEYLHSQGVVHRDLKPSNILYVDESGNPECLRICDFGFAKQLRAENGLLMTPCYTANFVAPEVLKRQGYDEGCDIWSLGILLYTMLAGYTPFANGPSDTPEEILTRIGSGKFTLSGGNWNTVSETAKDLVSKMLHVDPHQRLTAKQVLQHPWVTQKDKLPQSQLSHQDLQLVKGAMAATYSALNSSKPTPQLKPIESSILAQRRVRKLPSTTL
Proto-oncogene tyrosine-protein kinase Src, sequence (P12931 2-536 limits assumed): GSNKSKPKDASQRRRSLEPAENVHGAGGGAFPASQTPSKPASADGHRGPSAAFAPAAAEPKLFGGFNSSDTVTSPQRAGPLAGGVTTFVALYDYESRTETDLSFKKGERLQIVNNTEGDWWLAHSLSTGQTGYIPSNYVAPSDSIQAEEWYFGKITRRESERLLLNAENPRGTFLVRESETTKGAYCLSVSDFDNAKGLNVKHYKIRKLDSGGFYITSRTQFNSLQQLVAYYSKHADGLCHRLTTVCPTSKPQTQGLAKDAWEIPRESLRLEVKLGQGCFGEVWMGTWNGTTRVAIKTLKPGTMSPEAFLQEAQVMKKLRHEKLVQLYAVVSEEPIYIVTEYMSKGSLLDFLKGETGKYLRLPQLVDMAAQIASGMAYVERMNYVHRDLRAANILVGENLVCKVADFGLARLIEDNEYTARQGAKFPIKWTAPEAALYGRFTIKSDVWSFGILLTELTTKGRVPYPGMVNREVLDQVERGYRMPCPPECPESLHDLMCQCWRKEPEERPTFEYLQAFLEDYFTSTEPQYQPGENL
Activin receptor type-2A (Homo sapiens), sequence (P27037 whole entry): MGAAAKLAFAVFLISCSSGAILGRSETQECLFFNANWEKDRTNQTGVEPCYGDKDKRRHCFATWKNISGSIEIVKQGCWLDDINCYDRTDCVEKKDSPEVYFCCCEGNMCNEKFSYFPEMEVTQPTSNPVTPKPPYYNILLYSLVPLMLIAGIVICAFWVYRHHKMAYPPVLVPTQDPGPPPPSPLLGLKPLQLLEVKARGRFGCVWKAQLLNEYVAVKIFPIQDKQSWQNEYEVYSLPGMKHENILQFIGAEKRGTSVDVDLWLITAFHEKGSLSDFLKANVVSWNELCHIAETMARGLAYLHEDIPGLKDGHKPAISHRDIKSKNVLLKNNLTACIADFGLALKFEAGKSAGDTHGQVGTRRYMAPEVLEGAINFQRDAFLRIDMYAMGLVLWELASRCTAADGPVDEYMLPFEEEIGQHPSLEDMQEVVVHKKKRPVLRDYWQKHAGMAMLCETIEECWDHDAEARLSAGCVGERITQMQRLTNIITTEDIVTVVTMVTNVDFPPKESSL

`O=C(NOC[C@H](O)CO)c1ccc(F)c(F)c1Nc1ccc(I)cc1F` had a % of control in experiment [1] of 100%.

Consider `CNC(=O)Nc1ccc(-c2nc(N3CC4CCC(C3)O4)c3cnn(C4CCC5(CC4)OCCO5)c3n2)cc1`, for which, in [2], the % of inhibition was 13%. Further, the % of control in experiment [3] amounted to 71%.

Turning to `CC[C@@H]1[C@H](F)C(=O)N[C@@H]1COc1nccc2cc(C(N)=O)c(OC)cc12` [ZIMLOVISERTIB], the % of inhibition in experiment [4] (at 0.01 µM) is 6.4%; in experiment [4] (at 0.04 µM), -8.7%; in experiment [4] (at 0.2 µM), -2%; in [4] (at 1 µM) it was -0.8%; in [4] (at 5 µM), -1.4%; in experiment [5], 6.3%.

In the case of `CN(C)C/C=C/C(=O)Nc1ccc(C(=O)N2CCCC(Nc3ncc(Cl)c(-c4c[nH]c5ccccc45)n3)C2)cc1` (stereo unspecified), the % of control in [6] turned out to be 83%; in experiment [7] it was 82%; in [8], 90%.

As for `O[C@H]1CC[C@H](Nc2ncc3nc(Nc4c(F)cc(F)cc4F)n([C@H]4CCOC4)c3n2)CC1`, the % of control in [9] and in [10] was 100% each time.

`CCC(=O)N1CCN(c2ccc(-n3c(=O)ccc4cnc5ccc(-c6cnc7ccccc7c6)cc5c43)cc2C(F)(F)F)CC1`: in [11], the % of control worked out at 100%.

Regarding `Cc1cc(C)cc([C@@H]2c3cc(C)ccc3NC(=O)CN2C(=O)c2ccc(Br)s2)c1`, the % of inhibition in experiment [12] worked out at 15%.
